Tests used:
[1] = tested on: phosphohistone H3 levels in drug-resistant MCF7-ADR human breast tumour cells; assay: In vitro drug-resistant cell phenotype and substrate phosphorylation assay (MCF7-ADR); type: cell-based; conditions: NCI/ADR-RES, 24 hours of treatment, read-out: EC50 for inhibition of phosphohistone H3 levels
Procedure: (d) In Vitro Drug-Resistant Cell Phenotype and Substrate Phosphorylation Assay.
This assay is used to determine the cellular effects of compounds on drug-resistant MCF7-ADR human breast tumour cells in vitro.
Compounds typically cause inhibition of levels of phosphohistone H3 and an increase in the nuclear area of treated cells.
0.8×10^4 MCF7-ADR cells per well were plated in 100 μl DMEM media (containing 10% FCS (foetal calf serum) and 1% glutamine) in costar 96 well plates and left overnight at 37° C. and 5% CO2 to adhere.
All other procedures are identical to those for the above assay using SW620 cells.
The compounds of the invention generally have EC50 values for inhibition of phosphohistone H3 levels of […], particularly 0.5 nM to 1 μM and more particularly 0.5 nM to 0.5 μM.

aurora B kinase = aurora B kinase (Homo sapiens, UniProt Q96GD4); assay: In vitro aurora B kinase inhibition test; type: biochemical; conditions: aurora B-INCENP enzyme; 33P-ATP filter assay, 60 minutes; read-out: IC50 (50% inhibition of enzyme activity), aurora B
Chain of aurora B kinase (Q96GD4 whole entry): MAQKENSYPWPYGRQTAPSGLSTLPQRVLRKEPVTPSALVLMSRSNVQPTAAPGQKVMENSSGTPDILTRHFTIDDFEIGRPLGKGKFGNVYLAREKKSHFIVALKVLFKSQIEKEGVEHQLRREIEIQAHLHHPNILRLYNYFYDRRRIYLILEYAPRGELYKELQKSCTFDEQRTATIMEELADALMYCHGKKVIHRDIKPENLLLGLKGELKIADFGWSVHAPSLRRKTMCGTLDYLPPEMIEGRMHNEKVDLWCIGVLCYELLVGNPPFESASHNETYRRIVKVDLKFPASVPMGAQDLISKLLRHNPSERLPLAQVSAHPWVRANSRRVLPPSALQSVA
Chain of aurora B kinase (Q9NQS7 826-918 partner limits assumed): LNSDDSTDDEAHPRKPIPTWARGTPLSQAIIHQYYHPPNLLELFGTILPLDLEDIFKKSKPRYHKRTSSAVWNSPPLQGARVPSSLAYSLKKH
Excerpt: (b) In Vitro Aurora B Kinase Inhibition Test
This assay determines the ability of a test compound to inhibit serine-threonine kinase activity. DNA encoding aurora B may be obtained by total gene synthesis or by cloning. This DNA may then be expressed in a suitable expression system to obtain polypeptide with serine-threonine kinase activity. In the case of aurora B, the coding sequence was isolated from cDNA by polymerase chain reaction (PCR) and cloned into the pFastBac system in a manner similar to that described above for aurora A (i.e. to direct expression of a 6-histidine tagged aurora B protein).
For the large scale expression of aurora B kinase activity, Sf21 insect cells were grown at 28° C. in TC100 medium supplemented with 10% foetal calf serum (Viralex) and 0.2% F68 Pluronic (Sigma) on a Wheaton roller rig at 3 r.p.m. When the cell density reached 1.2×10^6 cells ml^−1 they were infected with plaque-pure aurora B recombinant virus at a multiplicity of infection of 1 and harvested 48 hours later. All subsequent purification steps were performed at 4° C. […]

Q: COc1cc(OC[C@H]2CCCN2)c2c(Nc3cnn(CC(=O)Nc4cccc(F)c4F)c3)ncnc2c1 [Prior art compound (I), reference compound] was tested. Which EC50 [1] did it give?
A: 120 nM

Q: What does the source list for COc1cc(OC[C@H]2CCCCN2)c2c(Nc3cnn(CC(=O)Nc4cccc(F)c4F)c3)ncnc2c1 [compound 2, N-(2,3-difluorophenyl)-2-[4-({7-methoxy-5-[(2R)-piperidin-2-ylmethoxy]quinazolin-4-yl}amino)-1H-pyrazol-1-yl]acetamide]?
A: EC50 [1]: 20 nM; IC50 (aurora B kinase): 1.4 nM

Q: Which EC50 [1] does the source give for CCOc1cc(OC[C@H]2CCCCN2)c2c(Nc3cnn(CC(=O)Nc4cccc(F)c4F)c3)ncnc2c1 [compound 1] here?
A: < 1 nM

Q: What about the IC50 (aurora B kinase) of the same compound?
A: 1.4 nM

Source: patent publication US20100168143A1, “QUINAZOLINE DERIVATIVES” (ASTRAZENECA AB, priority 2006, published 2010)
